Experimental data: PubChem BioAssay (NCI)
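Protocol summary: plate cells (96-well), add compound at 5 concentrations, incubate 48 h, interpolate endpoints linearly. TGI: total growth inhibition.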

What was measured:
Experiment in all cases: growth of human tumour cells (NCI), 48 h
MDA-MB-231 breast = tested on: MDA-MB-231 breast
K-562 leukemia = tested on: K-562 leukemia
TK-10 renal = tested on: TK-10 renal
HCT-15 colon = tested on: HCT-15 colon
LOX IMVI melanoma = tested on: LOX IMVI melanoma
HOP-92 NSCLC = tested on: HOP-92 NSCLC
HOP-62 NSCLC = tested on: HOP-62 NSCLC
COLO 205 colon = tested on: COLO 205 colon
SNB-19 CNS = tested on: SNB-19 CNS
SR leukemia = tested on: SR leukemia
NCI-H23 lung = tested on: NCI-H23 lung
IGROV1 ovarian = tested on: IGROV1 ovarian
RPMI-8226 leukemia = tested on: RPMI-8226 leukemia
M14 melanoma = tested on: M14 melanoma
NCI-H460 lung = tested on: NCI-H460 lung
NCI-H226 lung = tested on: NCI-H226 lung
SNB-75 CNS = tested on: SNB-75 CNS
ACHN renal = tested on: ACHN renal
SK-MEL-2 melanoma = tested on: SK-MEL-2 melanoma
MDA-N = tested on: MDA-N
EKVX NSCLC = tested on: EKVX NSCLC
SK-MEL-5 melanoma = tested on: SK-MEL-5 melanoma
PC-3 prostate = tested on: PC-3 prostate
CAKI-1 renal = tested on: CAKI-1 renal
HCC-2998 colon = tested on: HCC-2998 colon
HL-60(TB) leukemia = tested on: HL-60(TB) leukemia
HT29 colon = tested on: HT29 colon
U251 CNS = tested on: U251 CNS
T-47D breast = tested on: T-47D breast
786-0 renal = tested on: 786-0 renal
SF-539 CNS = tested on: SF-539 CNS
SW-620 colon = tested on: SW-620 colon
MALME-3M melanoma = tested on: MALME-3M melanoma
HS 578T breast = tested on: HS 578T breast
SF-268 CNS = tested on: SF-268 CNS
NCI/ADR-RES ovarian = tested on: NCI/ADR-RES ovarian
OVCAR-5 ovarian = tested on: OVCAR-5 ovarian
SN12C renal = tested on: SN12C renal
SK-OV-3 ovarian = tested on: SK-OV-3 ovarian
MOLT-4 leukemia = tested on: MOLT-4 leukemia
A549 NSCLC = tested on: A549 NSCLC
SF-295 CNS = tested on: SF-295 CNS
UACC-257 melanoma = tested on: UACC-257 melanoma
KM12 colon = tested on: KM12 colon
DU-145 prostate = tested on: DU-145 prostate
OVCAR-3 ovarian = tested on: OVCAR-3 ovarian
RXF 393 renal = tested on: RXF 393 renal
BT-549 breast = tested on: BT-549 breast
CCRF-CEM leukemia = tested on: CCRF-CEM leukemia
A498 renal = tested on: A498 renal
NCI-H522 lung = tested on: NCI-H522 lung
MCF7 breast = tested on: MCF7 breast
OVCAR-4 ovarian = tested on: OVCAR-4 ovarian
UACC-62 melanoma = tested on: UACC-62 melanoma
SK-MEL-28 melanoma = tested on: SK-MEL-28 melanoma
HCT-116 colon = tested on: HCT-116 colon
MDA-MB-435 = tested on: MDA-MB-435
OVCAR-8 ovarian = tested on: OVCAR-8 ovarian
UO-31 renal = tested on: UO-31 renal

C/C=C(\C)C(=O)OC1/C=C(\C)CC/C=C(\C)CC2OC(=O)C(C)(OC(C)=O)C12 (configuration not stated)
TGI (MDA-MB-231 breast): > 100 µM | TGI (K-562 leukemia): > 100 µM | TGI (TK-10 renal): > 100 µM | TGI (HCT-15 colon): > 100 µM | TGI (LOX IMVI melanoma): > 100 µM | TGI (HOP-92 NSCLC): > 100 µM | TGI (HOP-62 NSCLC): > 100 µM | TGI (COLO 205 colon): > 100 µM | TGI (SNB-19 CNS): > 100 µM | TGI (SR leukemia): > 100 µM | TGI (NCI-H23 lung): > 100 µM | TGI (IGROV1 ovarian): > 100 µM | TGI (RPMI-8226 leukemia): > 100 µM | TGI (M14 melanoma): > 100 µM | TGI (NCI-H460 lung): > 100 µM | TGI (NCI-H226 lung): > 100 µM | TGI (SNB-75 CNS): > 100 µM | TGI (ACHN renal): > 100 µM | TGI (SK-MEL-2 melanoma): > 100 µM | TGI (MDA-N): > 100 µM | TGI (EKVX NSCLC): > 100 µM | TGI (SK-MEL-5 melanoma): > 100 µM | TGI (PC-3 prostate): > 100 µM | TGI (CAKI-1 renal): > 100 µM | TGI (HCC-2998 colon): > 100 µM | TGI (HL-60(TB) leukemia): > 100 µM | TGI (HT29 colon): > 100 µM | TGI (U251 CNS): > 100 µM | TGI (T-47D breast): > 100 µM | TGI (786-0 renal): > 100 µM | TGI (SF-539 CNS): > 100 µM | TGI (SW-620 colon): > 100 µM | TGI (MALME-3M melanoma): > 100 µM | TGI (HS 578T breast): > 100 µM | TGI (SF-268 CNS): > 100 µM | TGI (NCI/ADR-RES ovarian): > 100 µM | TGI (OVCAR-5 ovarian): > 100 µM | TGI (SN12C renal): > 100 µM | TGI (SK-OV-3 ovarian): > 100 µM | TGI (MOLT-4 leukemia): > 100 µM | TGI (A549 NSCLC): > 100 µM | TGI (SF-295 CNS): > 100 µM | TGI (UACC-257 melanoma): > 100 µM | TGI (KM12 colon): > 100 µM | TGI (DU-145 prostate): > 100 µM | TGI (OVCAR-3 ovarian): > 100 µM | TGI (RXF 393 renal): > 100 µM | TGI (BT-549 breast): > 100 µM | TGI (CCRF-CEM leukemia): > 100 µM | TGI (A498 renal): > 100 µM | TGI (NCI-H522 lung): > 100 µM | TGI (MCF7 breast): > 100 µM | TGI (OVCAR-4 ovarian): > 100 µM | TGI (UACC-62 melanoma): > 100 µM | TGI (SK-MEL-28 melanoma): > 100 µM | TGI (HCT-116 colon): > 100 µM | TGI (MDA-MB-435): > 100 µM | TGI (OVCAR-8 ovarian): > 100 µM

O=C1C=CC(=O)c2c(O)c(N3CCC[C@@H]3CO)c(Cl)c(O)c21
TGI (MDA-MB-231 breast): 4.03 µM | TGI (K-562 leukemia): 2.22 µM | TGI (TK-10 renal): 3.3 µM | TGI (HCT-15 colon): 3.35 µM | TGI (LOX IMVI melanoma): 3.16 µM | TGI (HOP-92 NSCLC): 3.04 µM | TGI (HOP-62 NSCLC): 3.06 µM | TGI (COLO 205 colon): 2.88 µM | TGI (SNB-19 CNS): 3.09 µM | TGI (SR leukemia): 4.88 µM | TGI (NCI-H23 lung): 3.55 µM | TGI (IGROV1 ovarian): 3.27 µM | TGI (RPMI-8226 leukemia): 1.69 µM | TGI (M14 melanoma): 3.2 µM | TGI (NCI-H460 lung): 3.52 µM | TGI (NCI-H226 lung): 3.16 µM | TGI (SNB-75 CNS): 3.12 µM | TGI (ACHN renal): 2.96 µM | TGI (SK-MEL-2 melanoma): 3.15 µM | TGI (MDA-N): 3.15 µM | TGI (EKVX NSCLC): 3.55 µM | TGI (SK-MEL-5 melanoma): 2.28 µM | TGI (PC-3 prostate): 4.78 µM | TGI (CAKI-1 renal): 2.94 µM | TGI (HCC-2998 colon): 3.49 µM | TGI (HL-60(TB) leukemia): 0.734 µM | TGI (HT29 colon): 4.9 µM | TGI (U251 CNS): 3.46 µM | TGI (T-47D breast): 4.27 µM | TGI (786-0 renal): 3.17 µM | TGI (SF-539 CNS): 3.42 µM | TGI (SW-620 colon): 3.42 µM | TGI (MALME-3M melanoma): 3.07 µM | TGI (HS 578T breast): 4.03 µM | TGI (SF-268 CNS): 1.74 µM | TGI (NCI/ADR-RES ovarian): 6.25 µM | TGI (OVCAR-5 ovarian): 3.08 µM | TGI (SN12C renal): 3.25 µM | TGI (SK-OV-3 ovarian): 7.78 µM | TGI (MOLT-4 leukemia): 1.14 µM | TGI (A549 NSCLC): 4.19 µM | TGI (SF-295 CNS): 3.25 µM | TGI (UACC-257 melanoma): 3.28 µM | TGI (KM12 colon): 3.16 µM | TGI (UO-31 renal): 3.49 µM | TGI (DU-145 prostate): 3.28 µM | TGI (OVCAR-3 ovarian): 3.08 µM | TGI (RXF 393 renal): 2.98 µM | TGI (BT-549 breast): 3.7 µM | TGI (CCRF-CEM leukemia): 0.869 µM | TGI (A498 renal): 6.96 µM | TGI (NCI-H522 lung): 2.36 µM | TGI (MCF7 breast): 2.7 µM | TGI (OVCAR-4 ovarian): 3.16 µM | TGI (UACC-62 melanoma): 2.96 µM | TGI (SK-MEL-28 melanoma): 3.24 µM | TGI (HCT-116 colon): 2.91 µM | TGI (MDA-MB-435): 3.78 µM | TGI (OVCAR-8 ovarian): 4.13 µM
